The results in this text go back to US20260166128A1, “HUMAN AMYLIN ANALOG, AND DERIVATIVE THEREOF AND USE THEREOF” (priority 2022, published 2026).

Numbered stars: 1 amine (or outer) side, 2 acyl side, 3 side chain; on linkers, the order of the positions; unused ones are H or OH. Bridge positions count the residues as written; N and C are the ends. Side chains are listed from the residue outwards. Peptide text beside a SMILES is read from it. * marks the point of attachment. C20 diacid = O=C(O)CCCCCCCCCCCCCCCCCCC(=O)*; γGlu = O=C(O)[C@H](CCC(=O)[*:2])N[*:1]; C14 diacid = O=C(O)CCCCCCCCCCCCC(=O)*

The nature of this data set: Freeze-thaw stability of derivatives (freeze-thaw yield by liquid chromatography). It counts as physicochemical. Conditions: for Dissolution property: appearance after dissolution at 0.2 mg/ml in 20 mM phosphate buffer solution (PB) (pH 7.0); for Freeze storage property: appearance after overnight storage at −20° C. and thawing to room temperature, 0.2 mg/ml in 20 mM PB (pH 7.0); for Freeze storage yield: concentration of polypeptide after freezing and thawing / concentration before, by liquid chromatography, −20° C. overnight. On the procedure:
The freeze-dried powder of the polypeptide analog derivative prepared in Example 1 was mixed with a buffer solution according to a mass-volume ratio of 0.2 mg/ml, the polypeptide was dissolved with 20 mM phosphate buffer solution (PB) (pH 7.0), the sample was stored at −20° C. for overnight storage, and then the sample was taken out to be restored to room temperature for thawing. During the experiment, property changes of the polypeptide after dissolution and freezing and thawing were observed and recorded respectively, and concentrations of the polypeptide before and after the freezing and thawing were detected by the following liquid chromatography method: Materials and equipment: high-performance liquid chromatographic instrument (Agilent 1200), ultrapure water (18.2 MΩ self-manufactured ultrapure water), acetonitrile (HPLC grade), and trifluoroacetic acid (HPLC grade); and reversed-phase chromatographic column: […] A sample to be tested was centrifuged at 10,000 rpm and 4° C. for 3 minutes, and a supernatant was taken and added into a liquid-phase sample injection bottle. […] A freeze-thaw yield was calculated by the following formula: freeze-thaw yield=concentration of polypeptide after the freezing and thawing/concentration of polypeptide before the freezing and thawing.

As for `CC[C@H](C)[C@H](NC(=O)[C@@H]1CCCN1C(=O)[C@H](CCCCNC(=O)CC[C@H](NC(=O)CCCCCCCCCCCCCCCCCCC(=O)O)C(=O)O)NC(=O)[C@H](CC(C)C)NC(=O)[C@H](CC(N)=O)NC(=O)[C@H](CC(N)=O)NC(=O)[C@H](CO)NC(=O)[C@H](CO)NC(=O)[C@H](Cc1c[nH]cn1)NC(=O)[C@H](CCCNC(=N)N)NC(=O)[C@H](CC(C)C)NC(=O)[C@H](Cc1ccccc1)NC(=O)[C@H](CC(=O)O)NC(=O)[C@H](C)NC(=O)[C@H](CC(C)C)NC(=O)[C@H](CCCNC(=N)N)NC(=O)[C@H](CCC(N)=O)NC(=O)[C@@H](NC(=O)[C@H](C)NC(=O)[C@@H]1CSSC[C@H](NC(=O)[C@@H](N)CCCNC(=N)N)C(=O)N[C@@H](CC(N)=O)C(=O)N[C@@H]([C@@H](C)O)C(=O)N[C@@H](C)C(=O)N[C@@H]([C@@H](C)O)C(=O)N1)[C@@H](C)O)C(=O)N[C@@H](CC(C)C)C(=O)N1CCC[C@H]1C(=O)N1CCC[C@H]1C(=O)N[C@H](C(=O)N[C@@H](CC(N)=O)C(=O)N[C@H](C(=O)NCC(=O)N[C@@H](CO)C(=O)N[C@@H](CC(N)=O)C(=O)N[C@H](C(=O)N1CCC[C@H]1C(N)=O)[C@@H](C)O)C(C)C)[C@@H](C)O` [PD048] (H-RCNTATCATQRLADFLRHSSNNLK([γGlu-C20 diacid])PILPPTNVGSNTP-NH2; disulfide 2-7 (inferred); N-terminus assumed), the Dissolution property result was “Clear”, the Freeze storage property result is “Clear” and the Freeze storage yield turned out to be 102.16%.

Turning to “PD150: KCNTATCATQRLADFLRHSSNNLKPILPPTNVGSNT-trans-Hyp-NH2; N-terminal, 1K-ϵ; γGlu + C14 diacid ({C14 diacid-γGlu}-K([γGlu-C14 diacid])CNTATCATQRLADFLRHSSNNLKPILPPTNVGSNT-{trans‑Hyp-NH2}; disulfide 2-7 (inferred))”, the Dissolution property entry was “Clear”, the Freeze storage property entry is “Clear” and the Freeze storage yield was 103.74%.
